Assay results as given in publication PMC4608580, “Synthesis and Evaluation of Biological Activity of Antimicrobial – Pro-Proliferative Peptide Conjugates” (PLoS ONE, 2015).

Test system: Proteus mirabilis
Test: MIC, broth microdilution
Format: cell-based
Settings: Mueller-Hinton broth, approximately 10^5 CFU/mL, 37°C, 24 h, absorbance 590 nm, at least triplicate
Method: Luria-Bertani broth (LB) and Sabouraud Dextrose broth (SB) (Biocorp, Poland) were used for cultivation of bacteria and fungi strains, respectively. Antimicrobial activity of peptides was analyzed through determination of MIC (minimal inhibitory concentration) parameter according to the standard microdilution technique performed on 96-well plates. Mueller-Hinton broth (MHB) was used as the working medium for all bacterial strains, while in case of fungi it was additionally supplemented with 2% glucose.
Briefly, inoculum was prepared from freshly grown cultures of microorganisms being at their exponential phase of growth. […] Then plates were incubated overnight at 37°C and absorbance was read at 590 nm after 24 h. […]
All peptides were screened against the wide range of microorganisms, including Gram-negative, Gram-positive bacteria and fungi from Candida species (Table 2). […] All assays were performed on liquid Mueller-Hinton broth, which was additionally supplemented with 2% glucose when fungicidal activity towards Candida spps. was analyzed.

In the case of “IKKILSKIKKLL-NH2 [DK5, Lys-rich derivative of amphibian AMP temporin-1CEb, …-NH2, reference compound]”, the “MIC P.mirabilis” value is reported as “NI ^a)”.
